Assay [1] has as its system PWR-1E cells. Description: Antiproliferation assay 3 days, PWR-1E cells (Example 49). It is filed as cell-based. Conditions: 3 day treatment; read-out: PWR1e cell line IC50. As to the method: To determine the effect of lonidamine analogs thereof on cell proliferation, the antiproliferative activity of these compounds was tested in a multi-well Alamar Blue based assay (at 3 days). Cell growth in the presence and absence of the test compound was compared, as measured by a fluoresence plate reader at excitation 550 nm and emission 590 nm (see Biosource International Inc., Tech Application Notes, Use of Alamar Blue in the measurement of Cell Viability and Toxity, Determining IC50). The following cell lines were tested: PWR-1E cells ((ATCC CRL-11611), 3500 cells/well/200 μl in Keratinocyte SFM medium (Gibco Products, Invitrogen Corporation, Carlsbad, Calif.)); DU-145 cells ((ATCC HTB-81), 4000 cells/well/200 μl in MEM Eagles medium (ATCC, Manassas, Va.)); PC3 cells ((ATCC CRL-1435), 4000 cells/200 μl in Modified HAM's F12 medium (ATCC, Manassas, Va.)); PNt2 cells ((Sigma-Aldrich, 95012613-1 VL), 4000 cells/well/200 μl in RPMI medium (Gibco Products, Invitrogen Corporation, Carlsbad, Calif.), BPH-1 ((DSMZ ACC-143), 4000 cells/well/200 μl in RPMI medium (Gibco Products, Invitrogen Corporation, Carlsbad, Calif), and NCI-H460 cells ((ATCC HTB-177), 4000 cells/well/200 μl in RPMI medium (Gibco Products, Invitrogen Corporation, Carlsbad, Calif.)). The cells were seeded in a 96 well plate in a medium specified above. After 24 hours, these plates were divided into 2 groups—Control group and 3 day treatment group. A test compound was added to each plate in the treatment groups at concentrations of […] as tabulated in Table 1 (in 2 μl 1 of 100% DMSO, final DMSO concentration 1% in all wells). For NCI-H460 cells, test compounds were added to each plate in the treatment groups at concentrations of 600, 300, 100, 30, 10, 3, and 1 μM (in 2 μl of 100% DMSO, final DMSO concentration 1% in all wells). The cells in the 3 day treatment group were incubated for 3 days, followed by staining with AlamarBlue. In the Control group, AlamarBlue was added to the plate at (i) day 0 and (ii) day 3 and measured to establish the control reading. […] For the NCI-H460 cells, the capacity of the cells to proliferate was measured 5 hours after addition of AlamarBlue using the same fluorescence plate reader as stated above.

The subject of assay [2] is PWR-1E cells. As to the kind of experiment: Antiproliferation assay, PWR-1E cells (Example 48). It is filed as cell-based. Conditions: read-out: IC50 PWR-1E cell. On the procedure:
To determine the effect of lonidamine and analogs thereof on cell proliferation, the antiproliferative activity of these compounds was tested in a multi-well Alamar Blue based assay (at 2 h and 3 days). Cell growth in the presence and absence of the test compound (compounds 1-22) was compared, as measured by a fluorescence plate reader at excitation 550 nm and emission 590 nm (see Biosource International Inc., Tech Application Notes, Use of Alamar Blue in the measurement of Cell Viability and Toxicity, Determining IC50). H460 cells (ATCC HTB-177 ([…]), 4,000 cells/well/200 μl) and LNCap cells (ATCC CRL-1740, 6,000 cells/well/200 μl) were seeded in a 96 well plate in RPMI medium (Invitrogen Corporation, Carlsbad, Calif.). After 24 hours, these plates were divided into 3 groups—Control group, 2 h treatment group and 3 day treatment group. In the 2 h treatment group, after 2 h the cells were rinsed to remove the test compound and incubated for 3 days, followed by staining with AlamarBlue. The cells in the 3 day treatment group were incubated for 3 days, followed by staining with AlamarBlue. In the Control group, AlamarBlue was added to the plate at (i) day 0 and (ii) day 3 and measured to establish the control reading.
The effect of lonidamine and analogs thereof on cell proliferation in PWR-1E cells (ATCC CRL-11611) was determined in an antiproliferative assay using PWR-1E cells (5000 cells/well) in Keratinocyte SFM medium (Gibco Products, Invitrogen Corporation, Carlsbad, Calif.) according to the procedure detailed in Example 47 above.

Regarding `O=C(NO)c1nn(Cc2ccc(Cl)cc2Cl)c2ccccc12` [Compound 1], the IC50 (as a rule, the concentration that inhibits the measured activity by half) in the assay with PWR-1E cells [1] turned out to be 5.3 µM; in the assay with PWR-1E cells [2], 4 µM.

The record behind these values is patent publication US20070015771A1, “Lonidamine analogs” (Threshold pharmaceuticals, Inc., priority 2004, published 2007).
